Patent US11518788B2, “Methods and compositions for treating and preventing viral infection” (priority 2020, dated 2022)

Key:
[1] = test system: SARS-CoV-2 pseudovirus; assay type: cell-based
[2] = test system: SARS-CoV pseudovirus; assay type: cell-based

With heparin [reference compound] the “efficiency of inhibition of SARS-CoV-2 compared with SARS-CoV and MERS CoV” value [1] was “more efficiently than it does for SARS-CoV and MERS CoV”.

For ACE2-Fc, the “inhibition of SARS-CoV pseudovirus entry” value [2] was “inhibited”, the “inhibition of SARS-CoV-2 pseudovirus entry” value [1] was “inhibited” and the “percent infection of SARS-CoV-2 pseudovirus particles” value [1] was “reduced percent infection”.
